Target: T1, Dopamine beta hydroxylase (Homo sapiens, UniProt P09172)
T1 construct: 125 μl of plasma; tissue Instituto Português do Sangue Transplantação; host or cells: human plasma from healthy donors
T1 sequence (P09172 40-617 limits assumed): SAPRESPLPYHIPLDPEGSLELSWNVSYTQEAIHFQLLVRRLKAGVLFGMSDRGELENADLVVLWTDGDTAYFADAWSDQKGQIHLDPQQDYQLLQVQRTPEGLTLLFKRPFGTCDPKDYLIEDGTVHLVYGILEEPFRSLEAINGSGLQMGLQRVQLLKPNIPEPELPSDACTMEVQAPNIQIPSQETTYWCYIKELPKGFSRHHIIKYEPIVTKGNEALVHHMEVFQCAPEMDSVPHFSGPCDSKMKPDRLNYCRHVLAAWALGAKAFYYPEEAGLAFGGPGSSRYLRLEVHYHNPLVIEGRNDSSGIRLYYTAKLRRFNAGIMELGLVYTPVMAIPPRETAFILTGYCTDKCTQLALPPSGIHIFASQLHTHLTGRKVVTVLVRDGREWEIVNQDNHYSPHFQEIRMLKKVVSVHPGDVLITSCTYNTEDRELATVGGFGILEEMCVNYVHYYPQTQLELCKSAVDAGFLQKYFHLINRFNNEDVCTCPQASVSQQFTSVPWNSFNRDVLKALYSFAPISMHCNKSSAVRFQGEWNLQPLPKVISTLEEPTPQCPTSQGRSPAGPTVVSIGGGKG
Assay: Dopamine beta hydroxylase activity in human plasma
Type: biochemical
Conditions: for Plasma (0.01 μM), activity in % of control: inhibitor 0.01 μM; for Plasma (0.1 μM), activity in % of control: inhibitor 0.1 μM
Summary of the method: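 Octopamine production from tyramine over 45 min at 37° C, measured photometrically at 330 nm after SCX extraction and periodate oxidation against an octopamine standard curve, indicates plasma DβH activity. Compounds tested at final 10, 100 and 1000 nM in human plasma, pH 5.0 cofactor buffer, 10 min preincubation; results as % of control.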

Cn1c(C2(C(=O)NCCS(C)(=O)=O)CC2)c2n(c1=S)C[C@H](c1c(F)ccc(Br)c1F)C2 [Example 238, (S)-1-(6-(3-bromo-2,6-difluorophenyl)-2-methyl-3-thioxo-2,5,6,7-tetrahydro-3H-pyrrolo[1,2-c]imidazol-1-yl)-N-(2-(methylsulfonyl)ethyl)cyclopropane-1-carboxamide]
Plasma (0.01 μM), activity in % of control: 93.4 % of control
Plasma (0.1 μM), activity in % of control: 88.5 % of control

CN1CCC(NC(=O)Cc2c3n(c(=S)n2C)C[C@@H](c2c(F)ccc(F)c2F)C3)C1=O (stereo partly drawn) [Example 388, N-(1-methyl-2-oxopyrrolidin-3-yl)-2-((R)-2-methyl-3-thioxo-6-(2,3,6-trifluorophenyl)-2,5,6,7-tetrahydro-3H-pyrrolo[1,2-c]imidazol-1-yl)acetamide]
Plasma (0.01 μM), activity in % of control: 80.8 % of control
Plasma (0.1 μM), activity in % of control: 71.1 % of control

CN1CCN(C(=O)Cc2c3n(c(=S)n2C)C[C@@H](c2c(F)c(F)cc(F)c2F)C3)CC1=O [Example 324, (R)-1-methyl-4-(2-(2-methyl-6-(2,3,5,6-tetrafluorophenyl)-3-thioxo-2,5,6,7-tetrahydro-3H-pyrrolo[1,2-c]imidazol-1-yl)acetyl)piperazin-2-one]
Plasma (0.01 μM), activity in % of control: 88.6 % of control
Plasma (0.1 μM), activity in % of control: 53.1 % of control

CN(C(=O)Cc1[nH]c(=S)n2c1[C@@H]1C[C@]1(c1c(F)ccc(Cl)c1F)C2)C1CCOC1 (stereo partly drawn) [Example 396, 2-((5aS,6aR)-5a-(3-chloro-2,6-difluorophenyl)-3-thioxo-2,3,5,5a,6,6a-hexahydrocyclopropa[3,4]pyrrolo[1,2-c]imidazol-1-yl)-N-methyl-N-(tetrahydrofuran-3-yl)acetamide]
Plasma (0.01 μM), activity in % of control: 66.9 % of control
Plasma (0.1 μM), activity in % of control: 10.8 % of control

Cn1c(CC(=O)NCc2cccnc2)c2n(c1=S)C[C@H](c1c(F)ccc(Cl)c1F)C2 [Example 290, (S)-2-(6-(3-chloro-2,6-difluorophenyl)-2-methyl-3-thioxo-2,5,6,7-tetrahydro-3H-pyrrolo[1,2-c]imidazol-1-yl)-N-(pyridin-3-ylmethyl)acetamide]
Plasma (0.01 μM), activity in % of control: 37.6 % of control
Plasma (0.1 μM), activity in % of control: 3.8 % of control

[2H]C([2H])([2H])n1c(CC(=O)NC2CCOCC2)c2n(c1=S)C[C@@]1(c3cc(Br)ccc3F)C[C@@H]21 [Example 463, 2-((5aS,6aR)-5a-(5-bromo-2-fluorophenyl)-2-(methyl-d)-3-thioxo-2,3,5,5a,6,6a-hexahydrocyclopropa[3,4]pyrrolo[1,2-c]imidazol-1-yl)-N-(tetrahydro-2H-pyran-4-yl)acetamide]
Plasma (0.01 μM), activity in % of control: 29.1 % of control
Plasma (0.1 μM), activity in % of control: 3.7 % of control

Cn1c(CC(=O)N2CCCC2)c2n(c1=S)C[C@@]1(c3cc(Br)ccc3F)C[C@@H]21 [Example 310, 2-((5aS,6aR)-5a-(5-bromo-2-fluorophenyl)-2-methyl-3-thioxo-2,3,5,5a,6,6a-hexahydrocyclopropa[3,4]pyrrolo[1,2-c]imidazol-1-yl)-1-(pyrrolidin-1-yl)ethan-1-one]
Plasma (0.01 μM), activity in % of control: 65.9 % of control
Plasma (0.1 μM), activity in % of control: 22.3 % of control

O=C(Cc1[nH]c(=S)n2c1[C@@H]1C[C@]1(c1c(F)ccc(Cl)c1F)C2)N1CCC(F)(F)CC1 [Example 149, 2-((5aS,6aR)-5a-(3-chloro-2,6-difluorophenyl)-3-thioxo-2,3,5,5a,6,6a-hexahydrocyclopropa[3,4]pyrrolo[1,2-c]imidazol-1-yl)-1-(4,4-difluoropiperidin-1-yl)ethan-1-one]
Plasma (0.01 μM), activity in % of control: 52.5 % of control
Plasma (0.1 μM), activity in % of control: 3.0 % of control

CC(C)NC(=O)Cc1c2n(c(=S)n1C)C[C@H](c1c(F)ccc(Cl)c1F)C2 [Example 236, (S)-2-(6-(3-chloro-2,6-difluorophenyl)-2-methyl-3-thioxo-2,5,6,7-tetrahydro-3H-pyrrolo[1,2-c]imidazol-1-yl)-N-isopropylacetamide]
Plasma (0.01 μM), activity in % of control: 104.2 % of control
Plasma (0.1 μM), activity in % of control: 51.0 % of control

O=C(Cc1[nH]c(=S)n2c1C[C@@H](c1c(F)ccc(Br)c1F)C2)N1CC[S+]([O-])CC1 [Example 166, (S)-2-(6-(3-bromo-2,6-difluorophenyl)-3-thioxo-2,5,6,7-tetrahydro-3H-pyrrolo[1,2-c]imidazol-1-yl)-1-(1-oxidothiomorpholino)ethan-1-one]
Plasma (0.01 μM), activity in % of control: 66.9 % of control
Plasma (0.1 μM), activity in % of control: 14.1 % of control

CN(C(=O)Cc1c2n(c(=S)n1C)C[C@H](c1c(F)ccc(Cl)c1F)C2)[C@@H]1CCOC1 [Example 399, 2-((S)-6-(3-chloro-2,6-difluorophenyl)-2-methyl-3-thioxo-2,5,6,7-tetrahydro-3H-pyrrolo[1,2-c]imidazol-1-yl)-N-methyl-N—((R)-tetrahydrofuran-3-yl)acetamide]
Plasma (0.01 μM), activity in % of control: 40.6 % of control
Plasma (0.1 μM), activity in % of control: 4.0 % of control

CN(C(=O)Cc1c2n(c(=S)n1C)C[C@H](c1c(F)ccc(Cl)c1F)C2)C1CCOC1 (stereo partly drawn) [Example 383, 2-((S)-6-(3-chloro-2,6-difluorophenyl)-2-methyl-3-thioxo-2,5,6,7-tetrahydro-3H-pyrrolo[1,2-c]imidazol-1-yl)-N-methyl-N-(tetrahydrofuran-3-yl)acetamide]
Plasma (0.01 μM), activity in % of control: 65.6 % of control
Plasma (0.1 μM), activity in % of control: 14.8 % of control

Cn1c(CC(=O)N[C@@H]2CCOC2)c2n(c1=S)C[C@@]1(c3cc(Br)ccc3F)C[C@@H]21 [Example 279, 2-((5aS,6aR)-5a-(5-bromo-2-fluorophenyl)-2-methyl-3-thioxo-2,3,5,5a,6,6a-hexahydrocyclopropa[3,4]pyrrolo[1,2-c]imidazol-1-yl)-N—((R)-tetrahydrofuran-3-yl)acetamide]
Plasma (0.01 μM), activity in % of control: 61.7 % of control
Plasma (0.1 μM), activity in % of control: 15.7 % of control

CN(C(=O)Cc1c2n(c(=S)n1C)C[C@H](c1c(F)ccc(Br)c1F)C2)C1CCOCC1 [Example 405, (S)-2-(6-(3-bromo-2,6-difluorophenyl)-2-methyl-3-thioxo-2,5,6,7-tetrahydro-3H-pyrrolo[1,2-c]imidazol-1-yl)-N-methyl-N-(tetrahydro-2H-pyran-4-yl)acetamide]
Plasma (0.01 μM), activity in % of control: 50.7 % of control
Plasma (0.1 μM), activity in % of control: 4.5 % of control

O=C(Cc1[nH]c(=S)n2c1C[C@@H](c1c(F)ccc(Br)c1F)C2)N1CCC2(CCOC2)C1 (stereo partly drawn) [Example 138, 2-((S)-6-(3-bromo-2,6-difluorophenyl)-3-thioxo-2,5,6,7-tetrahydro-3H-pyrrolo[1,2-c]imidazol-1-yl)-1-(2-oxa-7-azaspiro[4.4]nonan-7-yl)ethan-1-one]
Plasma (0.01 μM), activity in % of control: 46.6 % of control
Plasma (0.1 μM), activity in % of control: 5.0 % of control

CN(C(=O)Cc1c2n(c(=S)n1C)C[C@H](c1c(F)ccc(Br)c1F)C2)[C@@H]1CCOC1 [Example 451, 2-((S)-6-(3-bromo-2,6-difluorophenyl)-2-methyl-3-thioxo-2,5,6,7-tetrahydro-3H-pyrrolo[1,2-c]imidazol-1-yl)-N-methyl-N—((R)-tetrahydrofuran-3-yl)acetamide]
Plasma (0.01 μM), activity in % of control: 39.8 % of control
Plasma (0.1 μM), activity in % of control: 5.5 % of control

Cn1c(CC(=O)N[C@@H]2CCCOC2)c2n(c1=S)C[C@@]1(c3cc(Cl)ccc3F)C[C@@H]21 [Example 301, 2-((5aS,6aR)-5a-(5-chloro-2-fluorophenyl)-2-methyl-3-thioxo-2,3,5,5a,6,6a-hexahydrocyclopropa[3,4]pyrrolo[1,2-c]imidazol-1-yl)-N—((R)-tetrahydro-2H-pyran-3-yl)acetamide]
Plasma (0.01 μM), activity in % of control: 49.1 % of control
Plasma (0.1 μM), activity in % of control: 6.4 % of control

Cn1c(CC(=O)N2CCC[C@H]2C(F)(F)F)c2n(c1=S)C[C@@H](c1c(F)ccc(F)c1F)C2 [Example 248, 2-((R)-2-methyl-3-thioxo-6-(2,3,6-trifluorophenyl)-2,5,6,7-tetrahydro-3H-pyrrolo[1,2-c]imidazol-1-yl)-1-((S)-2-(trifluoromethyl)pyrrolidin-1-yl)ethan-1-one]
Plasma (0.01 μM), activity in % of control: 98.2 % of control
Plasma (0.1 μM), activity in % of control: 51.8 % of control

Cn1c(CC(=O)N[C@H]2CCOC2)c2n(c1=S)C[C@@H](c1c(F)c(F)cc(F)c1F)C2 [Example 295, 2-((R)-2-methyl-3-thioxo-6-(2,3,5,6-tetrafluorophenyl)-2,5,6,7-tetrahydro-3H-pyrrolo[1,2-c]imidazol-1-yl)-N—((S)-tetrahydrofuran-3-yl)acetamide]
Plasma (0.01 μM), activity in % of control: 95.6 % of control
Plasma (0.1 μM), activity in % of control: 71.5 % of control

O=C(Cc1[nH]c(=S)n2c1C[C@@H](c1c(F)ccc(Br)c1F)C2)N1CCC[C@H]1CO [Example 100, 2-((S)-6-(3-bromo-2,6-difluorophenyl)-3-thioxo-2,5,6,7-tetrahydro-3H-pyrrolo[1,2-c]imidazol-1-yl)-1-((S)-2-(hydroxymethyl)pyrrolidin-1-yl)ethan-1-one]
Plasma (0.1 μM), activity in % of control: 26.2 % of control
Plasma (1 μM), activity in % of control (inhibitor 1 μM): 2.1 % of control
